Results on five substances are retold here after patent publication US10328148B2, “Protein drug formulations and packages” (Purdue Research Foundation, priority 2010, dated 2019).

One data set has as its system human IgG. Nature of the data set: Screening of peptides immobilized on POROS-Aldehyde resin for binding of IgG. The settings on record: for Affinity for IgG: immobilized peptides from proteolytic digests; for Selectivity of IgG binding: immobilized peptide, IgG from human plasma. The source says:
Identifying Peptide Epitopes with Affinity for IgG. Peptide epitopes with high affinity for IgG may be derived readily from combinatorial libraries and proteolytic digests of protein mixtures. Proteolytic digests of Protein G were immobilized on POROS-Aldehyde resin by Schiff base coupling at their N-termini and the peptides screened for their ability to bind IgG from human plasma. […] In all, four peptides showing high affinity for IgG were isolated from protein G digests by this method. Similar peptides with high affinity for human IgG were also isolated and characterized from cytochrome c ([…]) (SEQ ID NO: 6) and mouse anti-human polyclonal IgG digests ([…]) (SEQ ID NO: 7) using this method. […] Without being bound by theory, it is believed herein that because ethylene glycol assists elution, some hydrophobic effects may also be involved.

In another data set the test system is IgG. Nature of the data set: HP-SEC of IgG with free Protein A or Protein G: complex formation and agitation-induced aggregation. The format is physicochemical. The settings on record: IgG:Protein A or G ratio 1:4, RT 2 h. The procedure: Effect of proteins A and G on aggregation of IgG. High performance size exclusion chromatography (HP-SEC) is used to verify that IgG binds with Protein A or Protein G completely. 50 µL aliquots are injected to a Tosoh TSK G 13000 SWXL Gel 3000 column ([…]×7.8 mm) and separated at a flow rate of 0.5 mL/min. The mobile phase contains 50 mM potassium phosphate and 100 mM K2SO4 at pH 7.1. The relative percentage of IgG monomer and dimer are calculated in triplicate as a percentage of the total chromatographic peak area at 280 nm. Fresh IgG is incubated with free Protein A or free Protein G, respectively, at IgG:Protein A or G ratio of 1:4 at RT for 2 h before being subjected to agitation. […] Effect of agitation of protein A and protein G complexes of IgG. The prior Example 1 is repeated, subjecting the IgG+Protein A or IgG+Protein G to agitation on a shaker at room temperature for 44 h.
On the technique in general: In gel filtration, larger molecules generally elute earlier.

For the substance “CAQCHTVEK (listed as Staphylococcus aureus) [peptide isolated from cytochrome c digest]”, the “Affinity for IgG” value in the data set on human IgG is on record as “high affinity”. In the case of “GAQGHVVEK (listed as Staphylococcus aureus) [peptide isolated from mouse anti-human polyclonal IgG digests]”, the “Affinity for IgG” value in the data set on human IgG is given as “high affinity”. With “Protein A: free Protein A, immunoglobulin-binding protein used as polyamino acid ligand”, the “Complex formation with IgG by HP-SEC” value with IgG was “formation of IgG-Protein A and IgG-Protein G complexes”. As for “TVTEKPEV (listed as Staphylococcus aureus) [peptide from proteolytic digest of Protein G]”, the Binding constant for human IgG in the data set on human IgG (by HPLC methods) is roughly 1e+06 M⁻¹. Besides, the “Selectivity of IgG binding” value with human IgG was “comparable to Protein A”. Regarding “TVTEKVIDASELTPAVT (listed as Staphylococcus aureus) [peptide from proteolytic digest of Protein G]”, in the data set with human IgG, the “Selectivity of IgG binding” value was “comparable to Protein A”.
